# Patent US7595401B2, “Therapeutic compounds and their use in cancer” (Myriad Pharmaceuticals, Inc., priority 2006, dated 2009)
# Test system: purified human Hsp90
# Assay: Binding Assay: fluorescence polarization with BODIPY-labeled geldanamycin
# Settings: 5 μM compound, BODIPY-GM 10 nM, Hsp90 30 nM
# Procedure: Compound binding to purified Hsp90 was monitored using BODIPY-labeled geldanamycin (BODIPY-GM) in a fluorescence polarization assay adapted from Kim et al. (Journal of Biomolecular Screening 2004, 9(5):375-381). Compound dilutions (in 100% DMSO) were added to black-bottom 96-well plates (Greiner; 2% DMSO final), and equal volumes of BODIPY-GM (10 nM final) and purified human Hsp90 (Stressgen, SPP-770; 30 nM final) in assay buffer (20 mM HEPES-KOH pH 7.3, 50 mM KCl, 5 mM MgCl2, 20 mM Na2MoO4, 0.01% NP-40, 0.1 mg/mL bovine gamma globulin [Invitrogen, P2045], 2 mM DTT) were added sequentially to yield a final volume of 50 microliters. Plates were incubated overnight at room temperature. Parallel and perpendicular fluorescence measurements were read (LJL BioSystems Analyst AD plate reader) with excitation/emission wavelengths of 485/530 nm. Background fluorescence (buffer only) was subtracted, and fluorescence polarization (FP) values, expressed in mP units, were calculated from parallel and perpendicular fluorescence readings as follows: FP=(parallel−perpendicular)/(parallel+perpendicular)*1000
# Percent inhibition was calculated by normalizing the FP values to those obtained in parallel reactions containing DMSO and subtracting these normalized values from 100%. Intrinsic compound fluorescence was independently monitored, and FP data points confounded by compound fluorescence were excluded from the analysis.
row,% Inhibition at 5 μM Compound Concentration [%],Structure (SMILES)
1,17,"COc1ccc(OC)c(Sc2nc3c(N)ncn(CCc4cccc(Br)c4)c-3n2)c1 [Example 78, 3-[2-(3-bromo-phenyl)-ethyl]-8-(2,5-dimethoxy-phenylsulfanyl)-3H-purin-6-ylamine]"
2,61,"COc1ccc(OC)c(Sc2nc3c(N)ncnc3n2CCn2cccc2)c1 [Example 65, 8-(2,5-Dimethoxy-phenylsulfanyl)-9-(2-pyrrol-1-yl-ethyl)-9H-purin-6-ylamine]"
3,80,"COc1ccc(OC)c(Sc2nc3c(N)ncnc3n2CCc2ccccc2[N+](=O)[O-])c1 [Example 205, 8-(2,5-Dimethoxy-phenylsulfanyl)-9-[2-(2-nitro-phenyl)-ethyl]-9H-purin-6-ylamine]"
4,54,"CCOc1cc(CCn2c(Sc3cc4c(cc3Br)OCO4)nc3c(N)ncnc32)ccc1OC [Example 117, 8-(6-Bromo-benzo[1,3]dioxol-5-ylsulfanyl)-9-[2-(3-ethoxy-4-methoxy-phenyl)-ethyl]-9H-purin-6-ylamine]"
5,0,"N#Cc1ccc(Sc2nc3c(N)ncn(CCc4ccccc4)c-3n2)cc1 [Example 20, 4-(6-amino-3-phenethyl-3H-purin-8-ylsulfanyl)-benzonitrile]"

# The next lines start with the compound.
row,Structure (SMILES),% Inhibition at 5 μM Compound Concentration [%]
1,"COc1ccc(OC)c(Sc2nc3c(N)ncn(CCC4CCN(C=O)CC4)c-3n2)c1 [Example 359, 4-(2-{6-Amino-8-[(2,5-dimethoxyphenyl)thio]-3H-purin-3-yl}ethyl)piperidine-1-carbaldehyde]",3
2,"COc1ccc(OC)c(Sc2nc3c(N)ncn(CCn4cccc4)c-3n2)c1 [Example 66, 8-(2,5-dimethoxy-phenylsulfanyl)-3-(2-pyrrol-1-yl-ethyl)-3H-purin-6-ylamine]",5
3,"COc1ccc(OC)c(Sc2nc3c(N)ncn(CCC4CCOCC4)c-3n2)c1 [Example 349, 8-[(2,5-Dimethoxyphenyl)thio]-3-[2-(tetrahydro-2H-pyran-4-yl)ethyl]-3H-purin-6-amine]",12
4,"Nc1ncn(CCC(N)C2CC2)c2nc(Sc3cc4c(cc3Br)OCO4)nc1-2 (stereo not drawn) [Example 688, 3-(3-Amino-3-cyclopropylpropyl)-8-[(6-bromo-1,3-benzodioxol-5-yl)thio]-3H-purin-6-amine]",30
5,"CCCCNC(=O)Nc1ccc(CCn2cnc(N)c3nc(Sc4cc(OC)ccc4OC)nc2-3)cc1 [Example 278, N-[4-(2-{6-Amino-8-[(2,5-dimethoxyphenyl)thio]-3H-purin-3-yl}ethyl)phenyl]-N′-butylurea]",1.0
6,"COc1ccc(OC)c(Sc2nc3c(N)ncn(CCc4ccc(S(=O)(=O)NC(C)(C)C)cc4)c-3n2)c1 [Example 276, 4-(2-{6-Amino-8-[(2,5-dimethoxyphenyl)thio]-3H-purin-3-yl}ethyl)-N-(tert-butyl)benzenesulfonamide]",0.0

# Same assay, conditions: BODIPY-GM 10 nM, Hsp90 30 nM
row,IC50 [nM],Structure (SMILES)
1,1400,"Nc1ncnc2c1nc(Sc1cc3c(cc1Br)OCO3)n2CCC1CCN(Cc2ccc(Cl)cc2)CC1 [Example 573, 8-[(6-Bromo-1,3-benzodioxol-5-yl)thio]-9-{2-[1-(4-chlorobenzyl)piperidin-4-yl]ethyl}-9 H-purin-6-amine]"
2,900,"CC(C)(C)OC(=O)NC(CCn1c(Sc2cc3c(cc2Br)OCO3)nc2c(N)ncnc21)C1CCC1 (stereo not drawn) [Example 672, tert-Butyl(3-{6-amino-8-[(6-bromo-1,3-benzodioxol-5-yl)thio]-9H-purin-9-yl}-1-cyclobutylpropyl)carbamate]"
3,195,"CCNC(=O)N1CCCC(CCn2c(Sc3cc4c(cc3Br)OCO4)nc3c(N)ncnc32)C1 (stereo not drawn) [Example 435, 3-(2-{6-Amino-8-[(6-bromo-1,3-benzodioxol-5-yl)thio]-9H-purin-9-yl}ethyl)-N-ethylpiperidine-1-carboxamide]"
4,> 10000,"COc1ccc(OC)c(Sc2nc3c(N)ncnc3n2CCc2cccc(OC(F)(F)F)c2)c1 [Example 217, 8-(2,5-Dimethoxy-phenylsulfanyl)-9-[2-(3-trifluoromethoxy-phenyl)-ethyl]-9H-purin-6-ylamine]"
5,500,"COc1ccc(OC)c(Sc2nc3c(N)ncnc3n2CCn2cccc2)c1 [Example 65, 8-(2,5-Dimethoxy-phenylsulfanyl)-9-(2-pyrrol-1-yl-ethyl)-9H-purin-6-ylamine]"
6,> 5000,"O=c1[nH]cnc2c1nc(Sc1ccc3c(c1)OCO3)n2CCc1ccccc1 [Example 224, 8-(Benzo[1,3]dioxol-5-ylsulfanyl)-9-phenethyl-1,9-dihydro-purin-6-one]"
7,57,"Nc1ncnc2c1nc(Sc1cc3c(cc1Br)OCO3)n2CCC1CCOCC1 [Example 353, 8-[(6-Bromo-1,3-benzodioxol-5-yl)thio]-9-[2-(tetrahydro-2H-pyran-4-yl)ethyl]-9H-purin-6-amine]"
8,115,"CCOC(=O)N1CCCCC1CCn1c(Sc2cc3c(cc2Br)OCO3)nc2c(N)ncnc21 (stereo not drawn) [Example 339, Ethyl 2-(2-{6-amino-8-[(6-bromo-1,3-benzodioxol-5-yl)thio]-9H-purin-9-yl}ethyl)piperidine-1-carboxylate]"
9,240,"COc1ccc(OC)c(Sc2nc3c(N)ncnc3n2CCc2ccccc2[N+](=O)[O-])c1 [Example 205, 8-(2,5-Dimethoxy-phenylsulfanyl)-9-[2-(2-nitro-phenyl)-ethyl]-9H-purin-6-ylamine]"
10,> 5000,"COc1cccc(CCn2cnc(N)c3nc(Sc4cc(OC)ccc4OC)nc2-3)c1 [Example 36, 8-(2,5-dimethoxy-phenylsulfanyl)-3-[2-(3-methoxy-phenyl)-ethyl]-3H-purin-6-ylamine]"
11,60,"Nc1ncnc2c1nc(Sc1cc3c(cc1Br)OCO3)n2CCC1CCCNC1 (stereo not drawn) [Example 466, 8-[(6-Bromo-1,3-benzodioxol-5-yl)thio]-9-(2-piperidin-3-ylethyl)-9H-purin-6-amine]"
12,300,"CCOc1cc(CCn2c(Sc3cc4c(cc3Br)OCO4)nc3c(N)ncnc32)ccc1OC [Example 117, 8-(6-Bromo-benzo[1,3]dioxol-5-ylsulfanyl)-9-[2-(3-ethoxy-4-methoxy-phenyl)-ethyl]-9H-purin-6-ylamine]"
13,> 10000,"N#Cc1ccc(Sc2nc3c(N)ncn(CCc4ccccc4)c-3n2)cc1 [Example 20, 4-(6-amino-3-phenethyl-3H-purin-8-ylsulfanyl)-benzonitrile]"
14,400,"CCC(Cn1c(Sc2cc3c(cc2Br)OCO3)nc2c(N)ncnc21)c1ccccc1 (stereo not drawn) [Example 57, 8-(6-Bromo-benzo[1,3]dioxol-5-ylsulfanyl)-9-(2-phenyl-butyl)-9H-purin-6-ylamine]"

# More lines, now with the values behind:
row,Structure (SMILES),IC50 [nM]
1,"Nc1ncnc2c1nc(Sc1cc3c(cc1Br)OCO3)n2CCC1(F)C(F)(F)C(F)(F)C(F)(F)C(F)(F)C1(F)F [Example 243, 8-[(6-Bromo-1,3-benzodioxol-5-yl)thio]-9-[2-(undecafluorocyclohexyl)ethyl]-9H-purin-6-amine]",> 1000
2,"CC(C)C[C@H](NC(=O)OC(C)(C)C)C(=O)N1CCC(CCn2c(Sc3cc4c(cc3Br)OCO4)nc3c(N)ncnc32)CC1 [Example 699, tert-Butyl((1S)-1-{[4-(2-{6-amino-8-[(6-bromo-1,3-benzodioxol-5-yl)thio]-9H-purin-9-yl}ethyl)piperidin-1-yl]carbonyl}-3-methylbutyl)carbamate]",600
3,"Nc1ncnc2c1nc(Sc1ncccc1Br)n2CCC1CCN(C=O)CC1 [Example 550, 4-(2-{6-Amino-8-[(3-bromopyridin-2-yl)thio]-9 H-purin-9-yl}ethyl)piperidine-1-carbaldehyde]",> 5000
4,"COc1ccc(OC)c(Sc2nc3c(N)ncnc3n2CCC2C(=O)NN=C2C)c1 (stereo not drawn) [Example 407, 4-(2-{6-Amino-8-[(2,5-dimethoxyphenyl)thio]-9H-purin-9-yl}ethyl)-5-methyl-2,4-dihydro-3H-pyrazol-3-one]",> 25000
5,"CC(C)(C)OC(=O)N1CCCC[C@H]1C(=O)N1CCC(CCn2c(Sc3cc4c(cc3Br)OCO4)nc3c(N)ncnc32)CC1 [Example 732, tert-Butyl(2S)-2-{[4-(2-{6-amino-8-[(6-bromo-1,3-benzodioxol-5-yl)thio]-9H-purin-9-yl}ethyl)piperidin-1-yl]carbonyl}piperidine-1-carboxylate]",> 5000
